Source: ChEMBL document CHEMBL2069206 (J Med Chem, 2012)

Experiments:
Adenosine receptor A2a [1] = molecular target: T1, Adenosine receptor A2a (Homo sapiens, UniProt P29274); assay: Displacement of 3[H]CGS21680 from human A2A adenosine receptor expressed in HEK293 cells after 60 mins by Liquid scintillation analysis; assay type: cell-based
Adenosine receptor A3 = molecular target: T2, Adenosine receptor A3 (Homo sapiens, UniProt P0DMS8); assay: Displacement of [125I]I-AB-MECA from human A3 adenosine receptor expressed in CHO cells after 60 mins gamma counter; assay type: cell-based
T2 sequence (P0DMS8 whole entry): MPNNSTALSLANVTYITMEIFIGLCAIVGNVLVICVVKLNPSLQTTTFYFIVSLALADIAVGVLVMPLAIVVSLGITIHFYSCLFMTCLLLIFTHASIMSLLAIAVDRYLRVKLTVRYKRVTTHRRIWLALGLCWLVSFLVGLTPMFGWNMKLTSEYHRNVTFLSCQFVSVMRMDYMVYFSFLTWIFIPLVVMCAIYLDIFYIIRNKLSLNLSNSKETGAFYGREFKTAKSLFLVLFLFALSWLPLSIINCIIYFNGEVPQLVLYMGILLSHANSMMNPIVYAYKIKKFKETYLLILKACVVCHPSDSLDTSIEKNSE

Adenosine receptor A2a [2] = molecular target: T1, Adenosine receptor A2a; assay: Agonist activity at human A2A adenosine receptor expressed in CHO cells assessed as stimulation of forskolin-induced cAMP accumulation after 30 mins relative to NECA; assay type: functional, cell-based
[3] = molecular target: T3, Adenosine receptor A1 (Homo sapiens) (UniProt P30542); assay: Partial agonist activity at human A1 adenosine receptor expressed in CHO cells assessed as inhibition of forskolin-induced cAMP accumulation after 30 mins relative to NECA; assay type: functional, cell-based
T3 sequence (whole entry): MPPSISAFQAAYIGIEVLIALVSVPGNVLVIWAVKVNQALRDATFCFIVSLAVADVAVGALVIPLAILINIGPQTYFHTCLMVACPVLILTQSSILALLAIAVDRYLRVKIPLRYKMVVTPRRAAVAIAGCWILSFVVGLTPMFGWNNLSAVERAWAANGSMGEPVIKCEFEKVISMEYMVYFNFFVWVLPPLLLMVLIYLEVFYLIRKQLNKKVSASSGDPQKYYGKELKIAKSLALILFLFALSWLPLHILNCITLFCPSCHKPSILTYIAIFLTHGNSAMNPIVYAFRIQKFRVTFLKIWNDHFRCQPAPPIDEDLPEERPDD

Adenosine receptor A1 [4] = molecular target: T4, Adenosine receptor A1 (Homo sapiens, UniProt P30542); assay: Partial agonist activity at human A1 adenosine receptor expressed in CHO cells assessed as inhibition of forskolin-induced cAMP accumulation after 30 mins; assay type: functional, cell-based
T4 sequence (P30542 whole entry): T3 sequence (whole entry)

Adenosine receptor A2a [5] = molecular target: T1, Adenosine receptor A2a; assay: Agonist activity at human A2A adenosine receptor expressed in CHO cells assessed as stimulation of forskolin-induced cAMP accumulation after 30 mins; assay type: functional, cell-based
Adenosine receptor A1 [6] = molecular target: T4, Adenosine receptor A1; assay: Displacement of 3[H]R-PIA from human A1 adenosine receptor expressed in CHO cells after 60 mins by Liquid scintillation analysis; assay type: cell-based
[7] = molecular target: T3, Adenosine receptor A1 (Homo sapiens); assay: Agonist activity at human A1 adenosine receptor expressed in CHO cells assessed as inhibition of forskolin-induced cAMP accumulation after 30 mins relative to NECA; assay type: functional, cell-based
[8] = molecular target: T5, Adenosine receptor A1 (Rattus norvegicus) (UniProt P25099); conditions: CHO, 10 uM
T5 sequence (whole entry): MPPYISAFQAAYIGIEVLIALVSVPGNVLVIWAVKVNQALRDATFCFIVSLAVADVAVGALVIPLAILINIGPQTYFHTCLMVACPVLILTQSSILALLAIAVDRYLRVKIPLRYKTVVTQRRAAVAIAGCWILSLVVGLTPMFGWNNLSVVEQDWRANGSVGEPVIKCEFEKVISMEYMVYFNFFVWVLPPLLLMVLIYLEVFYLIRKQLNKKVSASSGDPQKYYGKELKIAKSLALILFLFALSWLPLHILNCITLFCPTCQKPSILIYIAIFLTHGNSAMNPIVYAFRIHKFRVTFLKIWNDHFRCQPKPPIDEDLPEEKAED

[9] = molecular target: Adenosine receptor A2a (Rattus norvegicus) (UniProt P30543); conditions: HEK293, 10 uM
Chain of Adenosine receptor A2a (Rattus norvegicus) (P30543 whole entry): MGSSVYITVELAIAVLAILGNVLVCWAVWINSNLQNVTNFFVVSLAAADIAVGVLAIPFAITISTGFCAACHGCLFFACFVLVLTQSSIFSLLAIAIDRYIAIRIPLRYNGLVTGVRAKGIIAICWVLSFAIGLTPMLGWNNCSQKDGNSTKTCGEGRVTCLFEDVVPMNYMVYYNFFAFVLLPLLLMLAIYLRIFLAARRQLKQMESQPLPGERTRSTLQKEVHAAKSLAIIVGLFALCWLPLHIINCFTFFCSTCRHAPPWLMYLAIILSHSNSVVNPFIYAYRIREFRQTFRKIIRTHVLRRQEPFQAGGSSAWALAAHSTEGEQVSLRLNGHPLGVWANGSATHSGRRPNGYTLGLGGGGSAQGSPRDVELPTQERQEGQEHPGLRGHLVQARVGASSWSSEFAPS

T1 sequence (P29274 whole entry): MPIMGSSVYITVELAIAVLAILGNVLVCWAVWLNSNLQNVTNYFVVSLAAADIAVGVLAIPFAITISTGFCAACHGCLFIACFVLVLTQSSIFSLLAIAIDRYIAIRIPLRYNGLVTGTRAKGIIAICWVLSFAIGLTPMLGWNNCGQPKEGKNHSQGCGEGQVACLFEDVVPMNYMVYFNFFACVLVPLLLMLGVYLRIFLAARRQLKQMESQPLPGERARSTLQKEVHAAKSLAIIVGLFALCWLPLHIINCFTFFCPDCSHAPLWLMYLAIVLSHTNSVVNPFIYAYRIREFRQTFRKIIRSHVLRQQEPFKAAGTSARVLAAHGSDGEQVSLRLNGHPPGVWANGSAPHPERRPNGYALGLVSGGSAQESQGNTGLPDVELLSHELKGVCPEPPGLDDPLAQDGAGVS

| Structure (SMILES) | Ki (Adenosine receptor A2a [1]) [µM] | Ki (Adenosine receptor A3) [µM] | EC50 (Adenosine receptor A2a [5]) [µM] | Ki (Adenosine receptor A1 [6]) [µM] | Efficacy [7] [%] | further results |
| --- | --- | --- | --- | --- | --- | --- |
| Nc1ncnc2c1ncn2[C@@H]1O[C@H](C(=O)NC2CCC2)[C@@H](O)[C@H]1O | 0.034 | 0.07 | 0.0268 |  |  | Efficacy (Adenosine receptor A2a [2]): 99%; Efficacy [3]: 65.2%; EC50 (Adenosine receptor A1 [4]): 0.0151 µM |
| Nc1ncnc2c1ncn2[C@@H]1O[C@H](C(=O)NC2CC2)[C@@H](O)[C@H]1O | 0.05 | 0.18 | 0.0229 | 0.0019 | 95.4 |  |
| CCNC(=O)[C@H]1O[C@@H](n2cnc3c(N)ncnc32)[C@H](O)[C@@H]1O |  |  |  |  | 100 |  |
| NCCCNC(=O)[C@H]1O[C@@H](n2cnc3c(N)ncnc32)[C@H](O)[C@@H]1O |  |  |  | > 10 |  |  |
| Nc1ncnc2c1ncn2[C@@H]1O[C@H](C(=O)NCC(F)(F)F)[C@@H](O)[C@H]1O |  | 0.7 |  | […] |  | Efficacy [3]: 73.4% |
| NCCNC(=O)[C@H]1O[C@@H](n2cnc3c(N)ncnc32)[C@H](O)[C@@H]1O |  |  |  |  |  | inhibition [8]: > 10%; inhibition [9]: > 10% |
| Nc1ncnc2c1ncn2[C@@H]1O[C@H](C(=O)NC2CCCC2)[C@@H](O)[C@H]1O | 0.65 | 0.07 | 0.225 | 0.027 | 92.5 | Efficacy (Adenosine receptor A2a [2]): 75% |
